Results as given in patent publication US20210395235A1, “COMPOUND AS TGF-beta R1 INHIBITOR AND APPLICATION THEREOF” (NANJING SANHOME PHARMACEUTICAL CO., LTD., priority 2018, published 2021).

How the values were obtained:
ALK5 = biological target: T1, ALK5 (Homo sapiens, UniProt P36897); experiment: In vitro activity against ALK5 kinase (ADP-Glo Kinase Assay); assay type: biochemical; details: 28° C. 120 minutes
T1 construct: purchased Carna 09-141
T1 sequence (P36897 162-503 limits assumed): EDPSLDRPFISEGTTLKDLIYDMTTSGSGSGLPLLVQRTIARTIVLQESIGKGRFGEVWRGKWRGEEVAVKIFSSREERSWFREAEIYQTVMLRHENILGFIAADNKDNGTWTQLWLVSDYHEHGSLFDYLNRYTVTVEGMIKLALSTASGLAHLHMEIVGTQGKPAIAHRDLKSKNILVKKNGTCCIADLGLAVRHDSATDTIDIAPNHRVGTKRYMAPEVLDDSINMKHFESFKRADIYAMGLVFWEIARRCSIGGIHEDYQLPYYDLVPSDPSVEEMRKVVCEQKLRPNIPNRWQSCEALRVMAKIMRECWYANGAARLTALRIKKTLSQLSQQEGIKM
Procedure: For the compounds of the present disclosure prepared in the above examples, each compound was prepared into 10 mM with DMSO, and then diluted to 3.333 μM, 1.111 μM, 370 nM, 123 nM, 41 nM, 14 nM, 4.6 nM, 1.5 nM and 0.5 nM successively.
Reagents: ALK5, Cat. No. 09-141, purchased from Carna; p38α, Cat. No. 04-152, purchased from the Carna; TGFβR1 peptides, Cat. No. T36-58, purchased from SignalChem; dimethyl sulfoxide (DMSO), purchased from Sigma, US; EDTA, purchased from Sigma, US; and ADP-Glo Kinase Assay, Cat. No. v9102/3, 1×Kinase buffer (40 mM Tris, pH7.5, 0.10% BSA, 20 mM MgCl2, 1 mM DTT), purchased from Promega, and prepared immediately before use.
2.2.1.1 Preparation of 50-fold compounds: The compounds were prepared into 500 μM, 50-fold concentration as the final concentration 10 μM for detecting the compounds, which was performed as following: into a second well of a 96-well plate, 95 μl of 100% DMSO was added, and then 5 μl of the 10 mM compound solution was added, to prepare a […] compound solution; into other wells, 60 μl of 100% DMSO was added; from the second well, 30 μl of the compound was drawn out and added into a third well; such 3-fold serial dilution was continued successively until 10 dilutions of concentration were made.
The kinase was added to a 1× kinase buffer, to form a 2× enzyme solution. 2.5 μl of the 2× enzyme solution was added to a 384-well reaction plate which already contained 100 nl of 100% DMSO-dissolved compound, to incubate at room temperature for 10 minutes.
FAM labeled peptides and ATP were added to the 1× kinase buffer, to form a 2× substrate solution. 2.5 μl of the 2× substrate solution was added to the 384-well reaction plate.
The 384-well plate was incubated at 28° C. for 120 minutes.
2.5.1 An ADP-Glo reagent was equilibrated to room temperature.
2.5.2 5 μl of the reaction solution was transferred into a reaction well at another new 384-well plate.
2.5.3 5 μl of the ADP-Glo reagent was transferred into the reaction well at the 384-well plate to stop the reaction.
2.5.4 An incubation was performed at 28° C. for 120 minutes.
2.5.5 10 μl of a kinase detection reagent was transferred into each reaction well, shaken for 1 minute, and was allowed to stand for 30 minutes at room temperature.
The luminescence value of the sample was read from Envision.
2.7.1 Luminescence reading data were copied from the Envision program.
2.7.2 The values of the luminescence reading were converted into the percent inhibition by the following formula.
Percent inhibition=(max−sample RLU)/(max−min)×100, where “min” stands for the fluorescence reading of the control sample with no enzyme added to the reaction; and “max” stands for the fluorescence reading of the sample with DMSO added as a control.
2.7.3 The date were imported into MS Excel and subjected to curve fitting using XLFit excel add-in version 5.4.0.8 and a fitting formula: Y=Bottom+(Top−Bottom)/(1+(IC50/X)^HillSlope).

[1] = tested on: TGFβ-ALK5-SMAD2/3 signaling pathway in Luc-Smad2/3-NIH3T3 cells; experiment: In vitro cell luciferase assay in Luc-Smad2/3-NIH3T3 cells stimulated with TGFβ1; assay type: cell-based; details: Mus musculus; TGFβ1 4 ng/mL, 2% FBS medium, luciferase chemiluminescence
Procedure: Test compounds: For the compounds of the present disclosure prepared in the above examples, each compound was prepared into 4 mM using DMSO. Then, a 4-fold serial dilution was made to obtain 20000.00 nM, 5000.00 nM, 1250.00 nM, 312.5 nM, 78.125 nM, 19.53 nM, 4.88 nM and 1.22 nM successively.
Luc-Smad2/3-NIH3T3 mouse fibroblasts (engineered to overexpress SMAD2,3-responsive promoter) were provided by a laboratory of China Pharmaceutical University.
Reagents: DMEM, purchased from Invitrogen, US; FBS, purchased from Invitrogen, US; DMSO, purchased from Sigma, US; Glo Lysis Buffer, purchased from Progema, US; Bright-Glo Luciferase assay system, purchased from Promega, US; and TGFβ, purchased from PeproTech, US.
Instruments: MD SpectraMaX M3 multifunctional enzyme reader, purchased from Molecular Devices, US.
Cell recovery: The cells were dissolved by placing in a […] water bath, then transferred to a 15 mL of pre-warmed culture medium, and centrifuged at 1000 rpm for 5 minutes. After the culture medium was discarded, the cells were resuspend in 15 mL of fresh culture medium, transferred to a 10 cm dish, and placed in an incubator at 37° C. with 5% CO2 for culture. After 24 hours, the culture medium for the cells was changed with a fresh culture medium.
Cell passage: The recovered cells were transferred to a 50 mL sterile centrifuge tube and centrifuged at 1000 rpm for 5 minutes. The culture medium was discarded. The evenly dispersed cells was counted, and adjusted to an appropriate cell concentration of 15 mL of fresh culture medium, added to a 10 cm dish, and placed in an incubator at 37° C. with 5% CO2 for culture.
Luc-Smad2/3-NIH3T3 cells were cultured normally in a 10 cm culture dish until the confluence reached 80%-90%. After digestion, they were collected in a 15 mL centrifuge tube, centrifuged at 1000×g for 5 minutes to remove the supernatant, and resuspended with 1 mL of medium, then diluted 10 times and counted. The cells was diluted according to the results from the count, and transferred into a 96-well plate at 4×10^3/cells per well (100 μl of resuspended cells was added in each well).
1-2 mg of the drug was weighed (weighed in advance), and prepared into a 4 mM stock solution using DMSO. After 24 hours, the culture medium was removed. The drug was diluted with 2% FBS culture medium. 100 μl of the 1× drug solution was added to make the final concentration of the drug to be 20000.00 nM, 5000.00 nM, 1250.00 nM, 312.5 nM, 78.125 nM, 19.53 nM, 4.88 nM, and 1.22 nM. TGFβ1 was present in each well at a final concentration of 4 ng/mL, and diluted with 2% FBS culture medium together with the compounds.
The Glo Lysis Buffer and the Bright-glo luciferase assay system as well as the cells were equilibrated to room temperature. After the cell supernatant was removed, the cells were dissolved evenly by adding 100 μl of the Glo Lysis Buffer to each well with shaking slowly, and lysed at room temperature for 5 minutes. After that, to each well, 100 μl of the Bright-glo luciferase assay system was added to incubate the cells for 5 minute at room temperature with shaking for 2 minutes. Then, 180 μl of the supernatant was transferred to a white bottom 96-well plate to detect chemiluminescence signal. The detection condition was 1 s.
2.3 Data processing: Graphpad Prism 5 software was used to perform nonlinear curve fitting and data analysis to obtain IC50 by fitting.

| SMILES | IC50 (ALK5) [nM] | IC50 [1] [nM] |
| --- | --- | --- |
| CC1(O)CCN(c2ccc3c(Oc4cn(C5CC5)nc4C4CCOCC4)ccnc3c2)CC1 [Example 5, 1-(4-((1-cyclopropyl-3-(tetrahydro-2H-pyran-4-yl)-1H-pyrazol-4-yl)oxy)quinolin-7-yl)-4-methyl piperidin-4-ol] | 110 | 133 |
| O=S1(=O)CCN(c2ccc3c(Oc4cn(C5CC5)nc4C4CCOCC4)ccnc3c2)CC1 [Example 4, 4-(4-((1-cyclopropyl-3-(tetrahydro-2H-pyran-4-yl)-1H-pyrazol-4-yl)oxy)quinolin-7-yl)thiomorpholine-1,1-dioxide] | 250 | 140 |
| NS(=O)(=O)c1ccc(-c2ccc3c(Oc4cn(C5CC5)nc4C4CCOCC4)ccnc3c2)cc1 [Example 20, 4-(4-((1-cyclopropyl-3-(tetrahydro-2H-pyran-4-yl)-1H-pyrazol-4-yl)oxy)quinolin-7-yl)benzenesulfonamide] | – | 75 |
| Cn1cc(-c2ccc3c(Oc4cn(C5CC5)nc4-c4ccccc4)ccnc3c2)cn1 [Example 14, 4-((1-cyclopropyl-3-phenyl-1H-pyrazol-4-yl)oxy)-7-(1-methyl-1H-pyrazol-4-yl)quinoline] | – | 46 |
| c1cc(Oc2cn(C3CC3)nc2C2CCOCC2)c2ccc(-c3cn[nH]c3)cc2n1 [Example 8, 4-((1-cyclopropyl-3-(tetrahydro-2H-pyran-4-yl)-1H-pyrazol-4-yl)oxy)-7-(1H-pyrazol-4-yl)quinoline] | – | 92 |
| COc1cc2nccc(Oc3cn(C4CC4)nc3C3CCOCC3)c2cc1Nc1cnn(C)c1 [Example 18, 4-((1-cyclopropyl-3-(tetrahydro-2H-pyran-4-yl)-1H-pyrazol-4-yl)oxy)-7-methoxy-N-(1-methyl-1H-pyrazol-4-yl)quinoline-6-amine] | 6 | 87 |
| CC(C)n1cc(-c2ccc3c(Oc4cn(C5CC5)nc4C4CCOCC4)ccnc3c2)cn1 [Example 12, 4-((1-cyclopropyl-3-(tetrahydro-2H-pyran-4-yl)-1H-pyrazol-4-yl)oxy)-7-(1-isopropyl-1H-pyrazol-4-yl)quinoline] | – | 77 |
| CC(C)(O)c1cc(-c2ccc3c(Oc4cn(C5CC5)nc4C4CCOCC4)ccnc3c2)ccn1 [Example 16, 2-(4-(4-((1-cyclopropyl-3-(tetrahydro-2H-pyran-4-yl)-1H-pyrazol-4-yl)oxy)quinolin-7-yl)pyridin-2-yl)propan-2-ol] | 100 | 200 |
| FC(F)(F)c1nnc2n1CCN(c1ccc3c(Oc4cn(C5CC5)nc4C4CCOCC4)ccnc3c1)C2 [Example 3, 4-((1-cyclopropyl-3-(tetrahydro-2H-pyran-4-yl)-1H-pyrazol-4-yl)oxy)-7-(3-(trifluoromethyl)-5,6-dihydro-[1,2,4]triazolo[4,3-a]pyrazin-7(8H)-yl)quinoline] | 80 | 102 |
| FC(F)(F)c1nc2n(n1)CCN(c1ccc3c(Oc4cn(C5CC5)nc4C4CCOCC4)ccnc3c1)C2 [Example 23, 4-((1-cyclopropyl-3-(tetrahydro-2H-pyran-4-yl)-1H-pyrazol-4-yl)oxy)-7-(2-(trifluoromethyl)-5,6-dihydro-[1,2,4]triazolo[1,5-a]pyrazin-7(8H)-yl)quinoline] | – | 200 |
| CC(C)(O)Cn1cc(-c2ccc3c(Oc4cn(C5CC5)nc4C4CCOCC4)ccnc3c2)cn1 [Example 11, 1-(4-(4-((1-cyclopropyl-3-(tetrahydro-2H-pyran-4-yl)-1H-pyrazol-4-yl)oxy)quinolin-7-yl)-1H-pyrazol-1-yl)-2-methylpropan-2-ol] | – | 96 |
| FC(F)(F)Cn1cc(-c2ccc3c(Oc4cn(C5CC5)nc4C4CCOCC4)ccnc3c2)cn1 [Example 13, 4-((1-cyclopropyl-3-(tetrahydro-2H-pyran-4-yl)-1H-pyrazol-4-yl)oxy)-7-(1-(2,2,2-trifluoroethyl)-1H-pyrazol-4-yl)quinoline] | – | 81 |
| CS(=O)(=O)N1CC=C(c2ccc3c(Oc4cn(C5CC5)nc4C4CCOCC4)ccnc3c2)CC1 [Example 22, 4-((1-cyclopropyl-3-(tetrahydro-2H-pyran-4-yl)-1H-pyrazol-4-yl)oxy)-7-(1-(methylsulfonyl)-1,2,3,6-tetrahydropyridin-4-yl)quinoline] | – | 56 |
| CS(=O)(=O)CCn1cc(-c2ccc3c(Oc4cn(C5CC5)nc4C4CCOCC4)ccnc3c2)cn1 [Example 10, 4-((1-cyclopropyl-3-(tetrahydro-2H-pyran-4-yl)-1H-pyrazol-4-yl)oxy)-7-(1-(2-(methylsulfonyl)ethyl)-1H-pyrazol-4-yl)quinoline] | – | 90 |
| CS(=O)(=O)n1cc(-c2ccc3c(Oc4cn(C5CC5)nc4C4CCOCC4)ccnc3c2)cn1 [Example 9, 4-((1-cyclopropyl-3-(tetrahydro-2H-pyran-4-yl)-1H-pyrazol-4-yl)oxy)-7-(1-(methylsulfonyl)-1H-pyrazol-4-yl)quinoline] | – | 101 |
| CS(=O)(=O)c1ccc(-c2ccc3c(Oc4cn(C5CC5)nc4C4CCOCC4)ccnc3c2)cn1 [Example 21, 4-((1-cyclopropyl-3-(tetrahydro-2H-pyran-4-yl)-1H-pyrazol-4-yl)oxy)-7-(6-(methylsulfonyl)pyridin-3-yl)quinoline] | – | 49 |
